The values below come from paper PMC8333062, “Chemical tools for epichaperome-mediated interactome dysfunctions of the central nervous system” (Nature Communications, 2021).

SMILES strings stand for the structures.

Data set [1] relates to stress HSP90 from MDA-MB-468 cancer cells. Briefly: Binding to stress HSP90. The note with it: study protocol; read-out: affinity (EC50) for stress HSP90. The arrangement: species or system human.
Data set [2] can be described thus: Acute toxicity, single IV infusion. The note with it: 2 mg/kg IV once, 14 days. The class given is in vivo, B6D2F1 mice. The source says: Samus Therapeutics, Inc. Confidential 07-November-2017 […]
other pathologic tissues, such as brain regions afflicted by neurodegeneration).This unique behavior of PU-AD provides the rationale for its favorable therapeutic index. It also provides the rationale for the use of a 124I-labeled PU-AD as a PET imaging agent to 1. detect tissues associated with stress HSP90 and 2. inform on the biodistribution and PK of PU -AD.
To assess acute toxicity of a single intravenous (IV) infusion of PU-AD, B6D2F1 mice (15 males and 15 females/group) were dosed IV once with either vehicle control or PU-AD at a dose of 2 mg/kg, which corresponds to 200x the maximum intended human dose for the PU-AD PET study. […]
normal behavior throughout. […] No abnormal findings were detected during gross necropsy, while complete histopathology evaluation is still pending. […]
To asses if chronic administration of PU -AD presented any toxicities, a preliminary study in 13 (6 male & 7 female) B6C3F1 mice was conducted. […] Thyroid was evaluated because PU-AD contains an […]
124I-PU-AD radiation dosimetry is a key part of this pilot trial, and 124I-PU-AD radiation dosimetry analyses shall be ongoing during the trial. In brief, region -of-interest (ROI) image analysis of 124I-PU-AD PET data allows organ dosimetry, calculated using the MIRD formalism as […]

A further data set deals with normal neurons. In kind it is cell-based. The note with it: constant exposure of 72 hours.
In data set [3] the target is HSP90 pools in JNPL3 (AD transgenic) mouse brain lysate. Briefly: Fluorescence polarization (FP) competitive binding, cy3B-GM. Conditions: read-out: FP relative affinity.
The target of the next data set is T1, CYP1A2 (Homo sapiens, UniProt P05177).
T1 sequence (P05177 1-516): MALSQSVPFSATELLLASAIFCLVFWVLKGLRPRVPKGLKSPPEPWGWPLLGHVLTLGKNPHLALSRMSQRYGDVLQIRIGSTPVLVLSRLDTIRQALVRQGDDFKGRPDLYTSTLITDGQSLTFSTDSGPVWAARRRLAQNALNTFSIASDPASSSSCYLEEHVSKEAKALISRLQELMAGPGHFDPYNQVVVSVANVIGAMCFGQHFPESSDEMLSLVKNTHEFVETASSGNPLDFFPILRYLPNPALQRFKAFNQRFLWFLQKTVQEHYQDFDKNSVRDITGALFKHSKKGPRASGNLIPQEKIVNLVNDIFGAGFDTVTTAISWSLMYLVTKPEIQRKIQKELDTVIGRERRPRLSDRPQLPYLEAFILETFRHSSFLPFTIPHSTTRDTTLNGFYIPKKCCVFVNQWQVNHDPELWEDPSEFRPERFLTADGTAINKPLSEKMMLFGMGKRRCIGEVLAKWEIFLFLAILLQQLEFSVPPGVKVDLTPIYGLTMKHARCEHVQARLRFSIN
Briefly: Cytochrome P450 profiling, furafylline. The class given is in vitro ADME. Conditions: for % PU-HZ151 remaining: Furafylline. On the procedure:
To identify cytochrome P450 enzymes responsible for PU-HZ151’s metabolism in human liver microsomes the following procedure was followed. Phosphate buffer (100 mM, pH 7.4) was prepared monthly and stored at 4 °C. Frozen stock solutions of human liver microsomes (Life Technologies; Cat# HMMCPL) were used once after thawing and were not refrozen. NADPH stock solution (50 mM) in distilled water was prepared fresh daily. […] The stock solutions of these P450 inhibitors were prepared in DMSO. […] The concentration of the chemical inhibitors used in the assay were furafylline (10 μM), tranylcypromine (2 μM), ketoconazole (1 μM), troleandomycin (20 μM), orphenadrine (50 μM), montelukast (3 μM), sulfaphenazole (10 μM), benzylnirvanol (1 μM), quinidine (1 μM), and 1-aminobenzotriazole (1 mM) for all the P450 enzymes. Timing of the reactions was started following the addition of NADPH/magnesium chloride mix and PU-HZ151. Time-dependent chemical inhibitors (furafylline, troleandomycin, orphenadrine, and 1-aminobenzotriazole) were preincubated with human microsomes in the presence of NADPH and magnesium chloride for 15 min before the addition of PU-HZ151 and timing of reactions was started after addition of PU-HZ151. […] Following brief vortexing and centrifugation, a 200 µL aliquot of the supernatant was transferred to a tube, and 10 µL of haloperidol (1 µg mL^−1) as internal standard was added. Following brief vortexing and centrifugation, 50 µL of supernatant was added to a 96-well plate for subsequent LC-MS/MS analysis. PU-HZ151 was similarly tested as above in the absence of CYP inhibitors for comparative purposes. All samples were assayed in duplicate. […] This was similarly performed for incubations of PU-HZ151 performed in the absence of CYP inhibitor.

Broadly, the Papp is the rate of passage across a membrane or cell layer, normalised by area and donor concentration. Read a low Papp as slow passage. For the compound `CC(C)(C)CNCCn1c(Sc2cc3c(cc2I)OCO3)nc2c(N)ncnc21` [Compound 85], the EC50 in data set [1] worked out at 6.9 nM; in data set [3], 5 nM. Moreover, the acute toxicity result in data set [2] is on record as “No mortality or morbidity was observed”. The “concentration needed to induce toxicity” value in the data set with normal neurons is 100 µM. Moreover, the “% PU-HZ151 remaining” value on CYP1A2 (15 min) was 65.9%; on CYP1A2 (30 min), 47.3%; on CYP1A2 (60 min) it was 26.3%. Also, the “inhibition of PU-HZ151 metabolism” value on CYP1A2 (furafylline) came out at 11%. Moreover, the PAMPA_BBB in “PAMPA-BBB permeability” (Supplementary Table 6) worked out at 15.4±2.6. This compound also showed a Papp at 16 h, 50 μM in “PAMPA-BBB permeability” (pig, PAMPA, pH 7.4) of 15.4 ± 1.3 ×10⁻⁶ cm/s.
